We go through 46 compounds from US9388175B2, “2-aniline-4-aryl substituted thiazole derivatives” (Janssen Pharmaceutica N.V., priority 2005, dated 2016).

In the assay the target is T1, hα7-wt nAChR stably expressed in the GH4C1 cell line (Homo sapiens, UniProt P36544).
T1 construct: expressed in transfected cells
T1 sequence (P36544 23-502): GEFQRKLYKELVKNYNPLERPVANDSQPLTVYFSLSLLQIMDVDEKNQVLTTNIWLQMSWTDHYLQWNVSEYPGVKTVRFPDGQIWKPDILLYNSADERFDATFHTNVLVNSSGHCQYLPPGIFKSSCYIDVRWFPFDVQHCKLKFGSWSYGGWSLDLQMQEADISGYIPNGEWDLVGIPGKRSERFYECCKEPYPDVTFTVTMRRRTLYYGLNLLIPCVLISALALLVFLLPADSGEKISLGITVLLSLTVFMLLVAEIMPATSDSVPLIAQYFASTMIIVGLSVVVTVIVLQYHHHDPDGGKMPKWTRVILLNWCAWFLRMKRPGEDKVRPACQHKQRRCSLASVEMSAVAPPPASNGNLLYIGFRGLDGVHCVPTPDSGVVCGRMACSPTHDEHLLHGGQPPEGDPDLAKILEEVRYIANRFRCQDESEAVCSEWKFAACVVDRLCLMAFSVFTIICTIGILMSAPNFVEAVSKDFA
In words: Ca2+ flux imaging (FLIPR) of PAM activity with choline as agonist. It is filed as cell-based. The following applies: efficacy relative to 100 μM choline alone (defined as 1); peak fluorescence, fluo-4AM; compounds tested 0.1 μM to 30 μM, efficacy criterion at 10 μM. An excerpt: Stable expression in mammalian cells in general and rat GH4C1 cells in particular, of cDNA clones encoding the human α7 wild-type sequence (hα7-wt nAChR) and in which the coding region is placed downstream of a promoter results in the appearance of functional α7 nAChRs on the surface of the mammalian cells. This technique has provided a powerful means of assessing the function of α7 wild-type protein. Given the fact that the cation permeability of the α7 nicotinic receptor preferentially favours calcium, fluorescent imaging of Ca^2+ flux through the hα7-wt nAChR stably expressed in the GH4C1 cell line was used as a first means of assaying modulator activity of the compounds of the present invention.
a) Assay Buffer • Hanks buffered saline solution (HBSS, Invitrogen, Belgium), supplemented with 10 mM HEPES (Invitrogen, Belgium), CaCl2 to a final concentration of 5 mM, 0.1% Bovine serum albumin (Sigma-Aldrich NV, Belgium), 2.5 mM probenecid (Sigma-Aldrich NV, Belgium).
b) Calcium-Sensitive Dye—Fluo-4AM • Fluo-4AM (Molecular Probes, USA) was dissolved in DMSO containing 10% Pluronic acid (Molecular Probes, USA) to give a stock solution which was aliquoted and could be stored at −20° C. until later use. On the day of the experiment Fluo-4AM stock was defrosted and diluted in DMEM/F12 (Invitrogen, Belgium) containing 2.5 mM probenicid and 0.1% BSA to give a final concentration of 2 μM.
c) 96-well Plates • BD Biocoat poly-D-lysine 96-well black/clear bottom plates (BD Biosciences, Belgium)
d) Calcium Flux Measurement • A Fluorimetric Imaging Plate Reader (FLIPR, Molecular Devices Corporation, Sunnyvale, USA) was used to measure intracellular free-calcium flux signals
Monolayers of hα7-wt nAChR-expressing cells were grown in multi-well plates, in particular black-sided, transparent bottomed 96 well plates coated with poly-D-lysine for 24 hours prior to loading with a fluorescent calcium indicator, in a particular embodiment loading with fluo-3 or fluo-4AM for up to 90 minutes, in an even more particular embodiment loading with fluo-4AM for up to 90 minutes, and in a preferred embodiment loading with fluo-4AM for 60 minutes.
In a particular embodiment, the α7 nicotinic receptor agonist was choline, a more particular embodiment choline applied at a sub-maximal concentration of 100 μM.
A control response to choline was calculated on each plate from the difference in peak fluorescence in wells receiving either choline or assay buffer alone. Compounds of the present invention were tested at a concentration range from 0.1 μM to 30 μM.
The activity ranges are defined as follows; A denotes an activity range from 1.1 till 1.5, B denotes an activity range from 1.5 till 2.0, C denotes an activity range from 2.0 till 3.0, D denotes an activity range from 3.0 till 4.5 and E denotes an efficacy from at least 4.5.
Consider `O=C(Nc1cccnc1)c1sc(Nc2ccccc2)nc1-c1ccccc1` [Compound 171, 5-Thiazolecarboxamide, 4-phenyl-2-(phenylamino)-N-3-pyridinyl-], for which the “Activity Range” value is “E (E denotes an efficacy from at least 4.5)”.

As to `COc1cc(OC)c(Nc2nc(-c3ccc4c(c3)OCCO4)c(CO)s2)cc1Cl` [int. 19, 2-[(5-chloro-2,4-dimethoxyphenyl)amino]-4-(2,3-dihydro-1,4-benzodioxin-6-yl)-5-thiazolemethanol], the “Activity Range” value was “E (E denotes an efficacy from at least 4.5)”.

As for `COc1ccc(Nc2nc(-c3ccncc3)c(CO)s2)c(OC)c1` [Compound 123], the “Activity Range” value is listed as “D (D denotes an activity range from 3.0 till 4.5)”.

Take `CNC(=O)CCc1sc(Nc2ccc(OC)cc2)nc1-c1ccnc(Cl)c1` [Compound 111]: the “Activity Range” value is reported as “E (E denotes an efficacy from at least 4.5)”.

`COC(=O)c1sc(Nc2cccc(C(F)(F)F)c2)nc1C(C)C` [Compound 148]: the “Activity Range” value was “E (E denotes an efficacy from at least 4.5)”.

Consider `FC(F)(F)c1cccc(Nc2nc(-c3cnc4ccccn34)cs2)c1` [Compound 56], for which the “Activity Range” value was “C (C denotes an activity range from 2.0 till 3.0)”.

For the compound `CNC(=O)c1sc(Nc2cc(Cl)c(OC)cc2OC)nc1-c1ccc(F)c(F)c1` [Compound 107, 2-[(5-chloro-2,4-dimethoxyphenyl)amino]-4-(3,4-difluorophenyl)-N-methyl-5-thiazolecarboxamide], the “Activity Range” value is on record as “E (E denotes an efficacy from at least 4.5)”.

`CCOC(=O)c1sc(Nc2cc(Cl)ccc2Cl)nc1-c1ccccc1` [Compound 174, 5-Thiazolecarboxylic acid, 2-[(2,5-dichlorophenyl)amino]-4-phenyl-, ethyl ester]: the “Activity Range” value is given as “E (E denotes an efficacy from at least 4.5)”.

Take `COc1ccc(Nc2nc(-c3ccc4c(c3)OCCO4)c(CO)s2)c(OC)c1` [Compound 95, 4-(2,3-dihydro-1,4-benzodioxin-6-yl)-2-[(2,4-dimethoxyphenyl)amino]-5-thiazolemethanol]: the “Activity Range” value was “E (E denotes an efficacy from at least 4.5)”.

Take `CCCc1nc(Nc2ccc(OC)cc2)sc1C(=O)OCC` [Compound 102]: the “Activity Range” value is “E (E denotes an efficacy from at least 4.5)”.

Consider `FC(F)(F)c1cc(Nc2nc(-c3cnc4ccccn34)cs2)ccc1Cl` [Compound 54], for which the “Activity Range” value was “A (A denotes an activity range from 1.1 till 1.5)”.

Take `COc1ccc(-c2csc(Nc3cc(F)ccc3C)n2)c(OC)c1` [Compound 40]: the “Activity Range” value is listed as “C (C denotes an activity range from 2.0 till 3.0)”.

With `Nc1cncc(-c2csc(Nc3ccc(F)c(C(F)(F)F)c3)n2)c1` [Compound 10], the “Activity Range” value was “A (A denotes an activity range from 1.1 till 1.5)”.

As to `Fc1cccc(-c2csc(Nc3cccc(C(F)(F)F)c3)n2)c1` [int. 12], the “Activity Range” value was “C (C denotes an activity range from 2.0 till 3.0)”.

In the case of `COC(=O)c1sc(Nc2ccc(OC)cc2)nc1C(C)C` [Compound 151], the “Activity Range” value is given as “E (E denotes an efficacy from at least 4.5)”.

In the case of `COc1ccc(OC)c(-c2csc(Nc3cccc4[nH]ncc34)n2)c1` [Compound 34], the “Activity Range” value is on record as “C (C denotes an activity range from 2.0 till 3.0)”.

For the compound `FC(F)(F)c1ccc(Nc2nc(-c3cccnc3)cs2)cn1` [Compound 65], the “Activity Range” value is listed as “C (C denotes an activity range from 2.0 till 3.0)”.

On to `Cc1sc(Nc2ccc(Br)cc2)nc1-c1cccnc1` [Compound 137], for which the “Activity Range” value is “D (D denotes an activity range from 3.0 till 4.5)”.

Take `CSc1cccc(Nc2nc(-c3cnc4ccccn34)cs2)c1` [Compound 52]: the “Activity Range” value is “C (C denotes an activity range from 2.0 till 3.0)”.

In the case of `OCc1sc(Nc2ccc(F)c(C(F)(F)F)c2)nc1-c1cccnc1` [Compound 91], the “Activity Range” value is given as “C (C denotes an activity range from 2.0 till 3.0)”.

Turning to `COCCc1nc(Nc2ccc(OC)cc2)sc1C(=O)OC` [Compound 158], the “Activity Range” value is “E (E denotes an efficacy from at least 4.5)”.

As for `Brc1ccc(Nc2nc(-c3cnc4ccccn34)cs2)cn1` [Compound 45], the “Activity Range” value is listed as “D (D denotes an activity range from 3.0 till 4.5)”.

Turning to `CSc1ccc(Nc2nc(-c3cnc4ccccn34)cs2)cn1` [Compound 49], the “Activity Range” value is “E (E denotes an efficacy from at least 4.5)”.

Regarding `COc1ccc(-c2csc(Nc3ccccc3OC)n2)c(OC)c1` [Compound 38], the “Activity Range” value is on record as “D (D denotes an activity range from 3.0 till 4.5)”.

Regarding `CCOC(=O)c1ccc(Nc2nc(-c3cccnc3)c(C)s2)cc1` [Compound 142], the “Activity Range” value was “E (E denotes an efficacy from at least 4.5)”.

For `Cc1ccc(Nc2nc(-c3cncc(Br)c3)c(CO)s2)cn1` [Compound 125], the “Activity Range” value was “E (E denotes an efficacy from at least 4.5)”.

For `COCc1sc(Nc2cc(Cl)ccc2Cl)nc1-c1ccccc1` [Compound 98], the “Activity Range” value is listed as “E (E denotes an efficacy from at least 4.5)”.

Take `COCc1nc(Nc2cc(Cl)ccc2Cl)sc1C(=O)OC` [Compound 140]: the “Activity Range” value was “E (E denotes an efficacy from at least 4.5)”.

For the compound `COC(=O)c1sc(Nc2cc(Cl)ccc2Cl)nc1C(C)C` [Compound 149], the “Activity Range” value was “E (E denotes an efficacy from at least 4.5)”.

For the compound `Fc1sc(Nc2cccc(C(F)(F)F)c2)nc1-c1cnc2ccccn12` [Compound 80], the “Activity Range” value is “C (C denotes an activity range from 2.0 till 3.0)”.

Consider `Cc1ccc(Nc2nc(-c3cccnc3)cs2)cn1` [Compound 66], for which the “Activity Range” value is recorded as “D (D denotes an activity range from 3.0 till 4.5)”.

With `CCOC(=O)c1sc(Nc2cccc(C(F)(F)F)c2)nc1C` [Compound 143], the “Activity Range” value is “E (E denotes an efficacy from at least 4.5)”.

On to `Cc1ccc(Nc2nc(-c3cccnc3)c(F)s2)cc1` [Compound 120], for which the “Activity Range” value is listed as “C (C denotes an activity range from 2.0 till 3.0)”.

Regarding `Cc1ccc(Nc2nc(-c3cccnc3)cs2)cc1` [Compound 77], the “Activity Range” value is listed as “C (C denotes an activity range from 2.0 till 3.0)”.

With `N#CCc1sc(Nc2cccc(C(F)(F)F)c2)nc1-c1ccccc1` [int. 3, [4-Phenyl-2-(3-trifluoromethyl-phenylamino)-thiazol-5-yl]-acetonitrile], the “Activity Range” value is reported as “D (D denotes an activity range from 3.0 till 4.5)”.

As to `Cc1cccc(Nc2nc(-c3cccnc3)c(Cl)s2)c1` [Compound 94], the “Activity Range” value is recorded as “D (D denotes an activity range from 3.0 till 4.5)”.

For the compound `CSc1cccc(Nc2nc(-c3cccnc3)c(C)s2)c1` [Compound 141], the “Activity Range” value was “C (C denotes an activity range from 2.0 till 3.0)”.

For `COc1ccc(Nc2nc(-c3ccccc3)c(Br)s2)cc1` [Compound 93], the “Activity Range” value is reported as “E (E denotes an efficacy from at least 4.5)”.

Consider `COc1ccc(OC)c(-c2csc(Nc3cccc(Cl)c3Cl)n2)c1` [Compound 39], for which the “Activity Range” value is on record as “C (C denotes an activity range from 2.0 till 3.0)”.

Take `OCc1sc(Nc2ccc(F)c(C(F)(F)F)c2)nc1-c1ccncc1` [Compound 89]: the “Activity Range” value is “E (E denotes an efficacy from at least 4.5)”.

On to `COc1cc(OC)c(Nc2nc(-c3ccc4c(c3)OCCO4)c(CC(=O)N3CCCC3)s2)cc1Cl` [Compound 133], for which the “Activity Range” value is given as “E (E denotes an efficacy from at least 4.5)”.

In the case of `Cc1ccc(-c2csc(Nc3cccc(C(F)(F)F)c3)n2)cn1` [Compound 68], the “Activity Range” value is “E (E denotes an efficacy from at least 4.5)”.

Regarding `Cc1sc(Nc2ccc(Cl)nc2)nc1-c1cccnc1` [Compound 88], the “Activity Range” value is recorded as “C (C denotes an activity range from 2.0 till 3.0)”.

Consider `COc1ccc(-c2csc(Nc3cccc4[nH]ncc34)n2)c(OC)c1` [Compound 35], for which the “Activity Range” value is recorded as “C (C denotes an activity range from 2.0 till 3.0)”.

Consider `COc1ccc(Nc2nc(-c3cccnc3)c(C)s2)cc1` [Compound 139], for which the “Activity Range” value is recorded as “D (D denotes an activity range from 3.0 till 4.5)”.

Consider `Cc1sc(Nc2ccc(C(F)(F)F)cc2)nc1-c1cccnc1` [Compound 86], for which the “Activity Range” value was “D (D denotes an activity range from 3.0 till 4.5)”.
